Laboratory results as given in patent publication US8486935B2, “Xinafoate salt of N4-(2,2-difluoro-4H-benzo[1,4]oxazin-3-one)-6-yl]-5-fluoro-N2-[3-(methylaminocarbonylmethyleneoxy)phenyl]2,4-pyrimidinediamine” (Rigel Pharmaceuticals, Inc., priority 2007, dated 2013).
Structures can show the parent of a compound that is named as a salt.

Assays:
Format in all cases: physicochemical
[1] = Solvation/hydration by thermogravimetric analysis (TGA); conditions: for hydration or solvation: TGA, ambient to 300° C.
Procedure: Solvation/Hydration was assessed by thermogravimetric analysis (TGA) using a TA Instruments Hi-Res TGA 2950 instrument measuring the weight loss of a 8.8 mg sample in an open platinum pan. The sample was heated at 20° C./min from ambient to 300° C. utilizing a nitrogen furnace purge gas.

[2] = Solid form after micronisation using jet milling; conditions: following micronisation using jet milling
[3] = Hygroscopicity by dynamic vapour sorption
Procedure: Hygroscopicity was assessed using dynamic vapour sorption equipment (Surface Measurement Systems Ltd, model DVS-1). The analysis was conducted at 30° C. with a nitrogen gas flow of 200 cc/min. Water sorption and desorption were determined in the range 0 to 90% relative humidity (RH) using 15% RH intervals. Exposure was for a minimum of 2 hours at each humidity or until the rate of weight change was less than 0.0003%/minute (averaged over 10 minutes). Sample weight was 12.6 mg. The sample was weighed using a CAHN D-200, seven place digital recording balance, which is an integral part of the equipment.

[4] = Solid state stability and excipient compatibility of the lactose monohydrate blend; conditions: for % main band remaining versus control: micronised, 1:100 blend with lactose monohydrate, control 5° C./0% humidity
Procedure: In order to test for solid state stability and excipient compatibility, a sample of the xinafoate salt was micronised by jet milling (particle size: D10=0.24 μm, D50=1.15 μm, D90=4.29 μm) and the resulting powder was blended at a 1:100 weight ratio with lactose monohydrate (Respitose grade SV008). Samples were stored for 12 weeks at 25° C./60% relative humidity and 40° C./75% relative humidity and assayed for remaining drug content and impurities at 4, 8 and 12 weeks. A control sample was stored at 5° C./0% humidity.

[5] = lactose blend, up to 12 weeks at 25° C./60% RH and 40° C./75% RH

CNC(=O)COc1cccc(Nc2ncc(F)c(Nc3ccc4c(c3)NC(=O)C(F)(F)O4)n2)c1 [free base, N4-[(2,2-difluoro-4H-benzo[1,4]oxazin-3-one)-6-yl]-5-fluoro-N2-[3-(methylaminocarbonylmethyleneoxy)phenyl]-2,4-pyrimidinediamine]
hydration or solvation [1]: hydrates to form a hemihydrate
solvate formation ([1]; nine solvents tested): formed a different solvated form in each of nine solvents tested

CNC(=O)COc1cccc(Nc2ncc(F)c(Nc3ccc4c(c3)NC(=O)C(F)(F)O4)n2)c1 [xinafoate salt, xinafoate salt of N4-[(2,2-difluoro-4H-benzo[1,4]oxazin-3-one)-6-yl]-5-fluoro-N2-[3-(methylaminocarbonylmethyleneoxy)phenyl]-2,4-pyrimidinediamine]
change in degree of crystallinity [2]: negligible decrease in the degree of crystallinity
change in solid form [2]: no change in solid form
hydration or solvation [1]: does not show any hydration or salvation
hygroscopicity ([3]; 0 to 90% RH, 30° C.): essentially non-hygroscopic
water sorption ([3]; 90% RH, 30° C., before micronisation): 0.6%
water sorption ([3]; 90% relative humidity, following micronisation using jet milling): 0.9%
% main band remaining versus control ([4]; 25° C./60% RH, 4 weeks): 100.2%
% main band remaining versus control ([4]; 25° C./60% RH, 8 weeks): 99.9%
% main band remaining versus control ([4]; 25° C./60% RH, 12 weeks): 100.1%
% main band remaining versus control ([4]; 40° C./75% RH, 4 weeks): 100.4%
% main band remaining versus control ([4]; 40° C./75% RH, 8 weeks): 100.0%
% main band remaining versus control ([4]; 40° C./75% RH, 12 weeks): 100.0%
change in physical form during storage [4, 5]: no change in physical form was detected
degradation during storage [4, 5]: no significant degradation was observed
